From patent US6525001B1, “Substituted pyrimidine and pyridine herbicides” (Mid-American Commercialization Corporation, priority 1997, dated 2003)

Assays:
Type in all cases: in vivo
Set-up in all cases: key: 0 is no effect; 10 is complete control
[1] = system: smallflower flatsedge (Cyperus difformis); test: Test B flood test
Method in brief: (§1)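 Read-out is a visual response score from 0 (no effect) to 10 (complete control), assigned by comparison with untreated controls. Treatment was applied at the 2-leaf stage, and plants stayed in the greenhouse for twelve to sixteen days before scoring.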

[2] = system: duck salad (Heteranthera limosa); test: Test B flood test
Method in brief: as §1

rice (Oryza sativa) = test: Test B flood test
Method in brief: as §1

[3] = system: bamyardgrass (Echinochloa crus-galli); test: Test B flood test
Method in brief: as §1

corn (Zea mays) = test: Test B pre-/postemergence; settings: for Plant response rating, Corn: Preemergence; for Corn plant response rating: Postemergence
Text: (§2) Seeds of bedstraw (Galium aparine), blackgrass (Alopecurus myosuroides), broadleaf signalgrass (Brachiaria decumbens), cocklebur (Xanthium strumarium), corn (Zea mays), crabgrass (Digitaria sanguinalis), giant foxtail (Setaria faberii), lambsquarters (Chenopodium album), momingglory (Ipomoea hederacea), pigweed (Amaranthus retroflexus), rape (Brassica napus), soybean (Glycine max), sugar beet (Beta vulgaris), velvetleaf (Abutilon theophrasti), wheat (Triticum aestivum), wild oat (Avena fatua) and purple nutsedge (Cyperus rotundus) tubers were planted and treated preemergence with test chemicals formulated in a non-phytotoxic solvent mixture which included a surfactant.
(§3) At the same time, these crop and weed species were also treated with postemergence applications of test chemicals formulated in the same manner. Plants ranged in height from 2 to 18 cm (1- to 4-leaf stage) for postemergence treatments. Plant species in the flood test consisted of rice (Oryza sativa), smallflower flatsedge (Cyperus difformis), duck salad (Heteranthera limosa) and bamyardgrass (Echinochloa crus-galli) grown to the 2-leaf stage for testing. Treated plants and controls were maintained in a greenhouse for twelve to sixteen days, after which all species were compared to controls and visually evaluated. Plant response ratings, summarized in Table B, are based on a scale of 0 to 10 where 0 is no effect and 10 is complete control. A dash (−) response means no test result.

rape (Brassica napus) = test: Test B pre-/postemergence; settings: for Plant response rating, Rape: Preemergence; for Rape plant response rating: Postemergence
Text: as §2, §3

[4] = system: blackgrass (Alopecurus myosuroides); test: Test B pre-/postemergence; settings: for Plant response rating, Blackgrass: Preemergence; for Blackgrass plant response rating: Postemergence
Text: as §2, §3

[5] = system: broadleaf signalgrass (Brachiaria decumbens); test: Test B pre-/postemergence
Text: as §2, §3

[6] = system: wheat (Triticum aestivum); test: Test B pre-/postemergence; settings: for Plant response rating, Wheat: Preemergence; for Wheat plant response rating: Postemergence
Text: as §2, §3

wild oat (Avena fatua) = test: Test B pre-/postemergence; settings: for Plant response rating, Wild oats: Preemergence; for Wild oats plant response rating: Postemergence
Text: as §2, §3

[7] = system: velvetleaf (Abutilon theophrasti); test: Test B pre-/postemergence; settings: for Velvetleaf plant response rating: Postemergence
Text: as §2, §3

soybean (Glycine max) = test: Test B pre-/postemergence; settings: for Plant response rating, Soybean: Preemergence; for Soybean plant response rating: Postemergence
Text: as §2, §3

[8] = system: bedstraw (Galium aparine); test: Test B pre-/postemergence; settings: for Plant response rating, Bedstraw: Preemergence; for Bedstraw plant response rating: Postemergence
Text: as §2, §3

[9] = system: cocklebur (Xanthium strumarium); test: Test B pre-/postemergence; settings: for Plant response rating, Cocklebur: Preemergence; for Cocklebur plant response rating: Postemergence
Text: as §2, §3

[10] = system: momingglory (Ipomoea hederacea); test: Test B pre-/postemergence; settings: for Plant response rating, Morningglory: Preemergence; for Morningglory plant response rating: Postemergence
Text: as §2, §3

[11] = system: crabgrass (Digitaria sanguinalis); test: Test B pre-/postemergence; settings: for Plant response rating, Crabgrass: Preemergence; for Crabgrass plant response rating: Postemergence
Text: as §2, §3

[12] = system: pigweed (Amaranthus retroflexus); test: Test B pre-/postemergence; settings: for Plant response rating, Redroot pigweed: Preemergence; for Redroot pigweed plant response rating: Postemergence
Text: as §2, §3

[13] = system: giant foxtail (Setaria faberii); test: Test B pre-/postemergence; settings: for Plant response rating, Giant foxtail: Preemergence; for Giant foxtail plant response rating: Postemergence
Text: as §2, §3

[14] = system: purple nutsedge (Cyperus rotundus); test: Test B pre-/postemergence; settings: for Plant response rating, Nutsedge: Preemergence
Text: as §2, §3

[15] = system: sugar beet (Beta vulgaris); test: Test B pre-/postemergence; settings: for Plant response rating, Sugarbeets: Preemergence; for Sugarbeets plant response rating: Postemergence
Text: as §2, §3

[16] = Rate 62 g/ha, Postemergence (flood test)
[17] = Rate 125 g/ha, Postemergence section (flood test species)

CCc1cnc(-n2ccc(C(F)(F)F)n2)nc1C(=O)c1cccc(C(F)(F)F)c1 [Compound 69]
10: Morningglory plant response rating ([10]; Rate 125 g/ha) | Redroot pigweed plant response rating ([12]; Rate 62 g/ha) | Redroot pigweed plant response rating ([12]; Rate 125 g/ha) | Plant response rating, Redroot pigweed ([12]; Rate 125 g/ha) | Sugarbeets plant response rating ([15]; Rate 62 g/ha) | Sugarbeets plant response rating ([15]; Rate 125 g/ha)
4: S. Flatsedge plant response rating [1, 17] | Plant response rating, Blackgrass ([4]; Rate 125 g/ha) | Wheat plant response rating ([6]; Rate 125 g/ha) | Plant response rating, Wild oats (wild oat (Avena fatua); Rate 62 g/ha, scale of 0 to 10) | Soybean plant response rating (soybean (Glycine max); Rate 62 g/ha) | Soybean plant response rating (soybean (Glycine max); Rate 125 g/ha) | Crabgrass plant response rating ([11]; Rate 125 g/ha) | Plant response rating, Giant foxtail ([13]; Rate 62 g/ha, scale of 0 to 10)
3: Blackgrass plant response rating ([4]; Rate 125 g/ha) | B. signalgrass plant response rating ([5]; Rate 62 g/ha, Postemergence) | B. signalgrass plant response rating ([5]; Rate 125 g/ha, Postemergence) | Wheat plant response rating ([6]; Rate 62 g/ha) | Wild oats plant response rating (wild oat (Avena fatua); Rate 62 g/ha) | Wild oats plant response rating (wild oat (Avena fatua); Rate 125 g/ha) | Crabgrass plant response rating ([11]; Rate 62 g/ha) | Giant foxtail plant response rating ([13]; Rate 125 g/ha)
9: Plant response rating, B. signalgrass ([5]; Rate 125 g/ha, Preemergence) | Bedstraw plant response rating ([8]; Rate 62 g/ha) | Bedstraw plant response rating ([8]; Rate 125 g/ha) | Plant response rating, Bedstraw ([8]; Rate 125 g/ha) | Morningglory plant response rating ([10]; Rate 62 g/ha) | Plant response rating, Crabgrass ([11]; Rate 125 g/ha) | Plant response rating, Sugarbeets ([15]; Rate 62 g/ha, scale of 0 to 10) | Plant response rating, Sugarbeets ([15]; Rate 125 g/ha)
8: Rape plant response rating (rape (Brassica napus); Rate 125 g/ha) | Plant response rating, Rape (rape (Brassica napus); Rate 125 g/ha) | B. signalgrass plant response rating ([5]; Rate 62 g/ha, Preemergence) | Velvetleaf plant response rating ([7]; Rate 62 g/ha) | Velvetleaf plant response rating ([7]; Rate 125 g/ha) | Plant response rating, Velvetleaf ([7]; Rate 125 g/ha, Preemergence) | Cocklebur plant response rating ([9]; Rate 62 g/ha) | Cocklebur plant response rating ([9]; Rate 125 g/ha) | Plant response rating, Morningglory ([10]; Rate 62 g/ha, scale of 0 to 10) | Plant response rating, Morningglory ([10]; Rate 125 g/ha) | Plant response rating, Redroot pigweed ([12]; Rate 62 g/ha, scale of 0 to 10) | Plant response rating, Giant foxtail ([13]; Rate 125 g/ha)
7: Plant response rating, Rape (rape (Brassica napus); Rate 62 g/ha, scale of 0 to 10) | Plant response rating, Wild oats (wild oat (Avena fatua); Rate 125 g/ha) | Plant response rating, Bedstraw ([8]; Rate 62 g/ha, scale of 0 to 10)
1: Ducksalad plant response rating [2, 17] | Barnyardgrass plant response rating [3, 16] | Plant response rating, Blackgrass ([4]; Rate 62 g/ha, scale of 0 to 10) | Plant response rating, Wheat ([6]; Rate 62 g/ha, scale of 0 to 10) | Plant response rating, Wheat ([6]; Rate 125 g/ha) | Plant response rating, Soybean (soybean (Glycine max); Rate 125 g/ha)
6: Rape plant response rating (rape (Brassica napus); Rate 62 g/ha) | Plant response rating, Crabgrass ([11]; Rate 62 g/ha, scale of 0 to 10)
0: Ducksalad plant response rating [2, 16] | Rice plant response rating (rice (Oryza sativa); [16]) | Plant response rating, Corn (corn (Zea mays); Rate 62 g/ha, scale of 0 to 10) | Plant response rating, Corn (corn (Zea mays); Rate 125 g/ha) | Plant response rating, Soybean (soybean (Glycine max); Rate 62 g/ha, scale of 0 to 10) | Plant response rating, Cocklebur ([9]; Rate 62 g/ha, scale of 0 to 10) | Plant response rating, Nutsedge ([14]; Rate 62 g/ha, scale of 0 to 10) | Plant response rating, Nutsedge ([14]; Rate 125 g/ha)
2: S. Flatsedge plant response rating [1, 16] | Rice plant response rating (rice (Oryza sativa); [17]) | Barnyardgrass plant response rating [3, 17] | Corn plant response rating (corn (Zea mays); Rate 62 g/ha) | Corn plant response rating (corn (Zea mays); Rate 125 g/ha) | Blackgrass plant response rating ([4]; Rate 62 g/ha) | Plant response rating, Cocklebur ([9]; Rate 125 g/ha) | Giant foxtail plant response rating ([13]; Rate 62 g/ha) | Nutsedge plant response rating ([14]; Rate 62 g/ha, Postemergence)
